From the NIST ThermoML archive (doi:10.1021/je400919u)
Numbers after ± are expanded uncertainties.

Conditions: Liquid, Closed cell (Static) method

FC(F)Cl [chlorodifluoromethane]
Conditions	vapor or sublimation pressure [kPa]
273 K	495 ± 5
275 K	528 ± 5
277 K	562 ± 5
279 K	599 ± 5
281 K	637 ± 5
283 K	677 ± 5
285.1 K	718 ± 6
286.9 K	761 ± 6
289 K	807 ± 6
291.1 K	855 ± 6
295.1 K	955 ± 6

O=C=O [carbon dioxide]
Conditions	vapor or sublimation pressure [kPa]
273 K	3387 ± 69
283 K	4406 ± 89
293 K	5627 ± 110
298.1 K	6323 ± 130

FC(F)(F)C1(F)OC1(F)F (stereo unspecified) [2,2,3-trifluoro-3-(trifluoromethyl)oxirane]
Conditions	vapor or sublimation pressure [kPa]
273 K	309 ± 5
278 K	366 ± 6
283 K	431 ± 6
288 K	505 ± 6
293 K	588 ± 6

FCC(F)(F)F [1,1,1,2-tetrafluoroethane]
Conditions	vapor or sublimation pressure [kPa]
258.2 K	162 ± 5
262.2 K	193 ± 5
272.2 K	286 ± 5
282.6 K	411 ± 5
292.9 K	569 ± 5
302.7 K	763 ± 6
